{
  "source": "patent US20100144755A1",
  "about": "(Glaxo Group Limited, priority 2006, published 2010)",
  "note": "Counter-ions that a name gives are not always drawn.",
  "data": [
    {"system": "TNF-stimulated IL8 production by human neutrophils", "experiment": "TNF-stimulated IL-8 production from human neutrophils;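 also: IL-8 in cell-free supernatant quantified by sandwich ELISA, inhibition calculated against a compound-free control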", "format": "cell-based", "settings": "Neutrophil, TNF 100 ng/ml, about 20 hrs, bounds reflect the top concentration screened, for 202(c) and 120 a range over multiple runs with ends given as 'greater than'", "units": {"IC50": "nM"}, "procedure": "TNF-Stimulated IL-8 Production from Human Neutrophils\nThe effect of test compounds on TNF-stimulated IL8 production by human neutrophils is measured as follows. Neutrophils are prepared from blood obtained from consenting donors, using standard methods. Blood is collected in heparinized syringes and layered over histopaque (30 ml/20 ml). Following centrifugation, the red cell pellet is resuspended in PBS and purified over a dextran gradient. […] Cells are added (0.5-1 ml) to 48 well plates already containing compound at 1000× final concentration in neat DMSO or 10% DMSO in RPMI1640 with 10% FBS. TNF (final concentration 100 ng/ml) is used as the stimulus. Cells incubated for approximately 20 hrs at 37° C., 5% CO2. Levels of IL-8 in the cell free supernatant are determined by sandwich ELISA, and inhibition relative to a control with DMPO but no compound is calculated.", "values": [
      {"smiles": "Cc1ccc(N)cc1-c1nc(NC2CCNCC2)nc2c1ccc(=O)n2-c1c(F)cccc1F", "note": "[Example 111, 4-(5-amino-methylphenyl)-8-(2,6-difluorophenyl)-2-(4-piperidinylamino)-pyrido[2,3-d]pyrimidin-7(8H)-one]", "IC50": "> 100"},
      {"smiles": "Cc1ccc(NC(=O)c2ccc(Cl)nc2)cc1-c1nc(N2CCC(N)CC2)nc2c1ccc(=O)n2-c1c(F)cccc1F", "note": "[Example 15, N-{3-[2-(4-amino-1-piperidinyl)-8-(2,6-difluorophenyl)-7-oxo-7,8-dihydropyrido[2,3-d]pyrimidin-4-yl]-4-methylphenyl}-6-chloro-3-pyridinecarboxamide]", "IC50": "> 100"},
      {"smiles": "CCN(CC)CCCNc1nc(-c2ccc(C(=O)Nc3nccs3)cc2)c2ccc(=O)n(-c3c(F)cccc3F)c2n1", "note": "[Example 192, 4-[2-{[3-(diethylamino)propyl]amino}-8-(2,6-difluorophenyl)-7-oxo-7,8-dihydropyrido[2,3-d]pyrimidin-4-yl]-N-1,3-thiazol-2-ylbenzamide]", "IC50": "> 100"},
      {"smiles": "CCN(CC)CCCNc1nc(-c2cccc(C(=O)Nc3ccc(F)cc3)c2C)c2ccc(=O)n(-c3c(F)cccc3F)c2n1", "note": "[Example 152, 3-[2-{[3-(diethylamino)propyl]amino}-8-(2,6-difluorophenyl)-7-oxo-7,8-dihydropyrido[2,3-d]pyrimidin-4-yl]-N-(4-fluorophenyl)-2-methylbenzamide]", "IC50": "> 100"},
      {"smiles": "Cc1ccc(NC(=O)c2cccs2)cc1-c1nc(NCc2ncc[nH]2)nc2c1ccc(=O)n2-c1c(F)cccc1F", "note": "[Example 10, N-(3-{8-(2,6-difluorophenyl)-2-[(1H-imidazol-2-ylmethyl)amino]-7-oxo-7,8-dihydropyrido[2,3-d]pyrimidin-4-yl}-4-methylphenyl)-2-thiophenecarboxamide]", "IC50": "> 100"},
      {"smiles": "CNCCNc1nc(-c2cc(NC(=O)c3cccs3)ccc2C)c2ccc(=O)n(-c3c(F)cccc3F)c2n1", "note": "[Example 11, N-[3-(8-(2,6-difluorophenyl)-2-{[2-(methylamino)ethyl]amino}-7-oxo-7,8-dihydropyrido[2,3-d]pyrimidin-4-yl)-4-methylphenyl]-2-thiophenecarboxamide]", "IC50": "> 100"},
      {"smiles": "CCN(CC)CCCNc1nc(-c2cccc(C(=O)NCC#N)c2C)c2ccc(=O)n(-c3c(F)cccc3F)c2n1", "note": "[Example 156, N-(cyanomethyl)-3-[2-{[3-(diethylamino)propyl]amino}-8-(2,6-difluorophenyl)-7-oxo-7,8-dihydropyrido[2,3-d]pyrimidin-4-yl]-2-methylbenzamide]", "IC50": "> 100"},
      {"smiles": "CCN(CC)CCCNc1nc(-c2ccc(C(=O)NC(C)C)cc2)c2ccc(=O)n(-c3c(F)cccc3F)c2n1", "note": "[Example 189, 4-[2-{[3-(diethylamino)propyl]amino}-8-(2,6-difluorophenyl)-7-oxo-7,8-dihydropyrido[2,3-d]pyrimidin-4-yl]-N-(1-methylethyl)benzamide]", "IC50": "> 100"},
      {"smiles": "CCN(CC)CCCNc1nc(-c2cccc(C(=O)NCC(C)C)c2C)c2ccc(=O)n(-c3c(F)cccc3F)c2n1", "note": "[Example 154, 3-[2-{[3-(diethylamino)propyl]amino}-8-(2,6-difluorophenyl)-7-oxo-7,8-dihydropyrido[2,3-d]pyrimidin-4-yl]-2-methyl-N-(2-methylpropyl)benzamide]", "IC50": "> 100"},
      {"smiles": "Cc1ccc(C(=O)O)cc1-c1nc(N2CCC(N3CCC(C)CC3)CC2)nc2c1ccc(=O)n2-c1c(F)cccc1F", "note": "[163(b), 3-[8-(2,6-difluorophenyl)-2-(4-methyl-1,4′-bipiperidin-1′-yl)-7-oxo-7,8-dihydropyrido[2,3-d]pyrimidin-4-yl]-4-methylbenzoic acid]", "IC50": "> 100"},
      {"smiles": "Cc1ccc(NC(=O)CCNC(=O)CCC(=O)O)cc1-c1nc(NC(CO)CO)nc2c1ccc(=O)n2-c1c(F)cccc1F", "note": "[Example 52, 4-[(3-{[3-(8-(2,6-difluorophenyl)-2-{[2-hydroxy-1-(hydroxymethyl)ethyl]amino}-7-oxo-7,8-dihydropyrido[2,3-d]pyrimidin-4-yl)-4-methylphenyl]amino}-3-oxopropyl)amino]-4-oxobutanoic acid trifluoroacetate]", "IC50": "> 100"},
      {"smiles": "Cc1ccc(NC(=O)c2cn(C)cn2)cc1-c1nc(NC(CO)CO)nc2c1ccc(=O)n2-c1c(F)cccc1F", "note": "[Example 51, N-[3-(2,6-difluorophenyl)-2-{[2-hydroxy-1-(hydroxymethyl)ethyl]amino}-7-oxo-7,8-dihydropyrido[2,3-d]pyrimidin-4-yl)-4-methylphenyl]-1-methyl-1H-imidazole-4-carboxamide trifluoroacetate]", "IC50": "> 100"},
      {"smiles": "CCN(CC)CCCNc1nc(-c2ccc(C(=O)Nc3ccc(F)cc3)cc2)c2ccc(=O)n(-c3c(F)cccc3F)c2n1", "note": "[Example 191, 4-[2-{[3-(diethylamino)propyl]amino}-8-(2,6-difluorophenyl)-7-oxo-7,8-dihydropyrido[2,3-d]pyrimidin-4-yl]-N-(4-fluorophenyl)benzamide]", "IC50": "> 100"},
      {"smiles": "CCN(CC)CCCNc1nc(-c2cccc(C(=O)NC3CC3)c2C)c2ccc(=O)n(-c3c(F)cccc3F)c2n1", "note": "[Example 155, N-cyclopropyl-3-[2-{[3-(diethylamino)propyl]amino}-8-(2,6-difluorophenyl)-7-oxo-7,8-dihydropyrido[2,3-d]pyrimidin-4-yl]-2-methylbenzamide]", "IC50": "> 100"},
      {"smiles": "Cc1ccc(NC(=O)c2cc[nH]n2)cc1-c1nc(NC(CO)CO)nc2c1ccc(=O)n2-c1c(F)cccc1F", "note": "[Example 53, N-[3-8-(2,6-difluorophenyl-2-{[2-hydroxy-1-(hydroxymethyl)ethyl]amino}-7-oxo-7,8-dihydropyrido[2,3-d]pyrimidin-4-yl)-4-methylphenyl]-1H-pyrazole-3-carboxamide trifluoroacetate]", "IC50": "> 100"},
      {"smiles": "CCCNC(=O)c1ccc(-c2nc(NCCCN(CC)CC)nc3c2ccc(=O)n3-c2c(F)cccc2F)cc1", "note": "[188(b), 4-[2-{[3-(diethylamino)propyl]amino}-8-(2,6-difluorophenyl)-7-oxo-7,8-dihydropyrido[2,3-d]pyrimidin-4-yl]-N-propylbenzamide]", "IC50": "> 100"},
      {"smiles": "Cc1ccc(NC(=O)c2ccc(Cl)nc2)cc1-c1nc(NCc2ncc[nH]2)nc2c1ccc(=O)n2-c1c(F)cccc1F", "note": "[Example 17, 6-chloro-N-(3-{8-(2,6-difluorophenyl)-2-[(1H-imidazol-2-ylmethyl)amino]-7-oxo-7,8-dihydropyrido[2,3-d]pyrimidin-4-yl}-4-methylphenyl)-3-pyridinecarboxamide]", "IC50": "> 100"},
      {"smiles": "Cc1ccc(NC(=O)c2ccc(Cl)nc2)cc1-c1nc(NC2CCNCC2)nc2c1ccc(=O)n2-c1c(F)cccc1F", "note": "[14(c), 6-chloro-N-{3-[8-(2,6-difluorophenyl)-7-oxo-2-(4-piperidinylamino)-7,8-dihydropyrido[2,3-d]pyrimidin-4-yl]-4-methylphenyl}-3-pyridinecarboxamide]", "IC50": "> 100"},
      {"smiles": "CCN(CC)CCCNc1nc(-c2cc(C(=O)O)ccc2C)c2ccc(=O)n(-c3c(F)cccc3F)c2n1", "note": "[118(a), 3-[2-{[3-(diethylamino)propyl]amino}-8-(2,6-difluorophenyl)-7-oxo-7,8-dihydropyrido[2,3-d]pyrimidin-4-yl]-4-methylbenzoic acid]", "IC50": "> 100"},
      {"smiles": "Cc1ccc(C(=O)NCC(C)(C)C)cc1-c1nc(N2CCC(N3CCC(C)CC3)CC2)nc2c1ccc(=O)n2-c1c(F)cccc1F", "note": "[Example 171, 3-[8-(2,6-difluorophenyl)-2-(4-methyl-1,4′-bipiperidin-1′-yl)-7-oxo-7,8-dihydropyrido[2,3-d]pyrimidin-4-yl]-N-(2,2-dimethylpropyl)-4-methylbenzamide]", "IC50": "> 100"},
      {"smiles": "CCN(CC)CCCNc1nc(-c2cccc(C(=O)O)c2)c2ccc(=O)n(-c3c(F)cccc3F)c2n1", "note": "[193(a), 3-[2-{[3-(diethylamino)propyl]amino}-8-(2,6-difluorophenyl)-7-oxo-7,8-dihydropyrido[2,3-d]pyrimidin-4-yl]benzoic acid]", "IC50": "> 100"},
      {"smiles": "CCN(CC)CCCNc1nc(-c2cc(C(=O)N[C@@H](C)C(C)C)ccc2C)c2ccc(=O)n(-c3c(F)cccc3F)c2n1", "note": "[Example 131, 3-[2-{[3-(diethylamino)propyl]amino}-8-(2,6-difluorophenyl)-7-oxo-7,8-dihydropyrido[2,3-d]pyrimidin-4-yl]-N-[(1S)-1,2-dimethylpropyl]-4-methylbenzamide]", "IC50": "> 10"},
      {"smiles": "CCCNC(=O)c1cccc(-c2nc(NCCCN(CC)CC)nc3c2ccc(=O)n3-c2c(F)cccc2F)c1C", "note": "[Example 153, 3-[2-{[3-(diethylamino)propyl]amino}-8-(2,6-difluorophenyl)-7-oxo-7,8-dihydropyrido[2,3-d]pyrimidin-4-yl]-2-methyl-N-propylbenzamide]", "IC50": "> 100"},
      {"smiles": "Cc1ccc(C(=O)NCCc2ccccc2)cc1-c1nc(NCCN(C)C(=O)OC(C)(C)C)nc2c1ccc(=O)n2-c1c(F)cccc1F", "note": "[202(c), 1,1-dimethylethyl(2-{[8-(2,6-difluorophenyl)-4-(2-methyl-5-{[(2-phenylethyl)amino]carbonyl}phenyl)-7-oxo-7,8-dihydropyrido[2,3-d]pyrimidin-2-yl]amino}ethyl)methylcarbamate]", "IC50": "10 to 100"},
      {"smiles": "Cc1ccc(NC(=O)c2ccc(Cl)nc2)cc1-c1nc(NC2CC(C)(C)NC(C)(C)C2)nc2c1ccc(=O)n2-c1c(F)cccc1F", "note": "[Example 16, 6-chloro-N-(3-{8-(2,6-difluorophenyl)-7-oxo-2-[(2,2,6,6-tetramethyl-4-piperidinyl)amino]-7,8-dihydropyrido[2,3-d]pyrimidin-4-yl}-4-methylphenyl]-3-pyridinecarboxamide]", "IC50": "> 100"}
    ]},
    {"system": "influx of neutrophils to the lung in LPS-challenged rats", "experiment": "Rat LPS neutrophilia model", "format": "in vivo", "settings": "LPS aerosol, intratracheal dosing, in at least one of the range of conditions tested, significance p<0.05", "how_it_was_run": "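Compound given intratracheally (200 ul suspension or dry powder via microsprayer) to isoflurane-anesthetized rats 15 min–24 h before 15 min LPS aerosol (100 ug/ml). Lavage 4 h post-challenge; neutrophils from differential counts. % inhibition versus no-compound controls at a given concentration and pretreat time.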", "values": [
      {"smiles": "Cc1ccc(C(=O)NCC(F)(F)F)cc1-c1nc(N2CCC(N3CCC(C)CC3)CC2)nc2c1ccc(=O)n2-c1c(F)cccc1F", "note": "[Example 172, 3-[8-(2,6-difluorophenyl)-2-(4-methyl-1,4′-bipiperidin-1′-yl)-7-oxo-7,8-dihydropyrido[2,3-d]pyrimidin-4-yl]-4-methyl-N-(2,2,2-trifluoroethyl)benzamide]", "inhibition of neutrophilia": "inactive"}
    ]}
  ]
}
